Values of other authors in patent US12622900B2, “Methods and compositions for treating gastric ulcers” (LUODA PHARMA LIMITED, priority 2015, dated 2026).

Tests used:
[1] = test system: gastric acid secretion; settings: single intramuscular injection at 1 mg/kg bodyweight, omeprazole monohydrate dissolved in saline
[2] = test system: gastric acid
[3] = test system: gastric ulcers; settings: traditional oral dosing

For COc1ccc2nc([S+]([O-])Cc3ncc(C)c(OC)c3C)[nH]c2c1 (stereo not drawn) [omeprazole, 6-methoxy-2-[(4-methoxy-3,5-dimethylpyridin-2-yl)methanesulfinyl]-1H-1,3-benzodiazole], which “Duration of pentagastrin-stimulated acid suppression” value [1] is on record?
Its value is 12 h.

And the “Duration of reduced basal acid secretion” value [1]?
The value was “around 23 hours”.

And the “Period for which the dose is effective” value ([2]; 1-2 g daily oral dose to horses)?
Its value is 12 to 24 h.

And the “Duration of adequate gastric acid suppression” value ([2]; oral omeprazole preparations in horses (Merritt et al))?
The value was 12 h.

And the Gastric ulcers healed ([3]; in 28-35 days)?
The Gastric ulcers healed was 25%.

And the “Squamous ulcers that will heal” value ([3]; within a 28 day treatment period)?
The value was 70-80%.
